# Source: patent US10577382B2, “Fused heterocyclic compound” (TAKEDA PHARMACEUTICAL COMPANY LIMITED, priority 2016, dated 2020)
# Experiments:
# [1] = test system: SK-MEL-28-Control cells; assay: Growth inhibitory action on SK-MEL-28-Control cells (CellTiter-Glo); type: cell-based, human; settings: 125 nM, 3 days
# Source text: Human MYC cDNA was inserted downstream of the TRE of a lentiviral vector (modified pTRIPZ: GE Healthcare) having a tetracycline responsive sequence (TRE) in the promoter region. The produced virus was infected with human malignant melanoma cells SK-MEL-28 (purchased from ATCC) to establish SK-MEL-28 cells (SK-MEL-28-MYC) inducing expression of MYC in the presence of doxycycline (Takara Bio Inc.) which is a tetracycline derivative. SK-MEL-28 cells (SK-MEL-28-Control) having an empty vector with only modified pTRIPZ were also established. 20 μL/well of 2.5 μg/mL doxycycline-containing medium was added to a 96-well plate, and 80 μl/well (1,000 cells/well) of a cell suspension was added, and cultured at 37° C. for 2 days in a 5% CO2 gas incubator. Thereafter, 100 μl of a 250 nM test compound solution was added (final concentration: 125 nM), and the mixture was further cultured for 3 days. 50 µl/well of a CellTiter-Glo™ Luminescent Cell Viability Assay reagent (Promega Corporation) was added to a 96-well plate, the amount of luminescence was measured by a luminometer, and the amount of remaining ATP was determined as a cell amount. The inhibition ratio (%) of cell growth by the test compound was calculated in accordance with the following expression. Inhibition ratio (%)=(1−(amount of luminescence of test compound)÷(amount of luminescence of control group))×100
# [2] = test system: MDM4 protein; assay: MDM4 protein amount in HCT116 cells (western blot); type: cell-based, human; settings: 300 nM, 16 hours, relative to control group
# Experimental: 1000 μl (8,0000 cells/well) of a cell suspension of human colon adenocarcinoma cells HCT116 (purchased from ATCC) was seeded in a 12-well plate, and cultured at 37° C. for 2 days in a 5% CO2 gas incubator. The test compound solution was added to a final concentration of 300 nM, and the mixture was cultured for 16 hours. The plate was washed with PBS, a protein extract (10% glycerol, 1% sodium dodecyl sulfate, 62.5 mM Tris-HCl (pH: 7.5)) was then added to dissolve the cells, and the solution was treated at 95° C. for 5 minutes. Thereafter, the amount of protein was determined using BCA Protein Assay Kit (Thermo Fisher Scientific).
# The amount of the protein in each sample was adjusted, SDS-PAGE was then performed, and the protein was transferred to a PVDF membrane using an iBlot (registered trademark) gel transfer system (Invitrogen). […] The membrane was washed in the same procedure as described above, a phosphorylated CLK2 protein, a MDM4 protein, a p53 protein and a p21 protein each labeled with an antibody were then made chemiluminescent using ImmunoStar ZETA (Wako Pure Chemical Industries, Ltd.), and luminescence was detected with LAS-3000 Image Analyzer (Fujifilm Corporation). The luminescence intensity was determined using Multi Gauge Ver. 3.1 (Fujifilm Corporation), and quantified. […]
smiles,measurement,setting,value
"COc1ncnn2ccc(-c3cnc4nc(C)n(Cc5nnc([C@@H](C)F)o5)c4c3)c12 [Example 286, 1-((5-((1R)-1-fluoroethyl)-1,3,4-oxadiazol-2-yl)methyl)-6-(4-methoxypyrrolo[2,1-f][1,2,4]triazin-5-yl)-2-methyl-1H-imidazo[4,5-b]pyridine]","Inhibition ratio (%) of cell growth, Doxycycline (+)",[1]; Doxycycline (+),35.7%
same,"Inhibition ratio (%) of cell growth, Doxycycline (−)",[1]; Doxycycline (−),34.4%
same,Residual ratio (MDM4),[2],43.6%
